Laboratory results: patent publication US10195179B2, “Spiro-lactam NMDA receptor modulators and uses thereof” (Aptinyx Inc., priority 2016, dated 2019)
Read-outs that look alike come from different tables or passages of the source.

Legend:
[1] = Bioavailability and CSF/brain/plasma exposure after PO administration; type: in vivo, Sprague Dawley rats; settings: rat; for Kp: male, Sprague Dawley, 10 mg/kg PO
Description: The bioavailablity of Compound BB was investigated following PO administration. CSF, brain and plasma samples were analyzed following dosing with compound BB (10 mg/kg). The following table indicates the bioavailablity and CSF/plasma and brain/plasma ratios.
Sprague Dawley rats were dosed intravenously with 2 mg/kg of Compound AA. A second group of Sprague Dawley rats was dosed per os with 10 mg/kg of compound AA. Plasma samples were drawn over a 24 h period and analyzed for Compound AA. FIG. 3A presents the mean plasma concentration-time profile of Compound AA following the single intraveneous (2 mg/kg) and oral (10 mg/kg) dose administration in male Sprague Dawley rats over the 24 hour period.
In another experiment. Sprague Dawley rats were dosed intravenously with 2 mg/kg of Compound BB. A second group of Sprague Dawley rats was dosed per os with 10 mg/kg of compound BB. Plasma samples were drawn over a 24 h period and analyzed for Compound BB. FIG. 3B presents the mean plasma concentration-time profile of Compound BB following the single intraveneous (2 mg/kg) and oral (10 mg/kg) dose administration in male Sprague Dawley rats over the 24 hour period.
In another experiment, Sprague Dawley rats were dosed per os with 10 mg/kg of Compound BB. Plasma, brain, and CSF samples were analyzed at various time points over a 24 hour period.

Sprague Dawley rats = assay: Bennett model of mechanical analgesia (paw withdrawal threshold); type: in vivo, rat; settings: 0.1-10 mg/kg PO; tested 1 h, 24 hrs and 1 week post-dosing
Description: Bennett G J, Xie Y K, “A peripheral mononeuropathy in rat that produces disorders of pain sensation like those seen in man,” Pain 33:87-107, 1988. […] Vehicle animals receive the surgery and then receive vehicle rather than test compound. Animals were tested 1 hr, 24 h and 1 wk post-test compound or vehicle administration.
Male 2-3 month old Sprague Dawley rats were used. Harlan was the supplier for all studies. Rats were housed in Lucite cages with aspen wood chip bedding, maintained on a 12:12 light:dark cycle (lights on at 5 AM), and given ad libitum access to Purina lab chow (USA) and tap water throughout the study.
Rats were anesthetized using inhaled isoflurane (2.5%). Spared nerve injury surgery was performed as previously described (Bennett and Xie, 1988). An incision (˜1.5 cm in length) was made with a scalpel blade dorsally through skin on the right hindlimb, parallel and posterior to femur. Using a small pointed hemostat, the biceps femoris and gluteus superficialis muscles were separated. Using curved blunt forceps, the common sciatic nerve was isolated and exposed. For the mechanical analgesia studies, the whole sciatic nerve was ligated. Using hemostats/forceps and chromic gut (5-0), the nerve was loosely ligated with a square knot; 3 ligatures, 1 mm apart were placed on the nerve. […]

Plasma stability, human = type: in vitro ADME
Description: Plasma stability for Compound AA and Compound BB was investigated. The following table indicates the percent of Compound AA and Compound BB remaining after 60 minutes.

NR2B = NR2B (Homo sapiens, UniProt Q13224); assay: Potentiation of [3H]MK-801 binding, wild-type NMDAR2B; design: species or system rat
Description: (§1) Assays were conducted as described by Moskal et al., “GLYX-13: a monoclonal antibody-derived peptide that acts as an N-methyl-D-aspartate receptor modulator,” Neuropharmacology, 49, 1077-87, 2005. The potentiation of [^3H]MK-801 binding (5 nM; 22.5 Ci/mmol) to well washed rat cortical membranes (200 μg) was measured under non-equilibrium conditions (15 min @ 25° C.) in the presence of increasing concentrations of Compound AA or Compound BB.
(§2) FIG. 2A depicts the potentiation of [^3H]MK-801 binding for wild-type NMDAR2 subtypes in the presence of Compound AA. FIG. 2B depicts the potentiation of [^3H]MK-801 binding for wild-type NMDAR2 subtypes in the presence of Compound BB. The following table depicts the results (P means potency and A means activity): […]

NR2D = NR2D (Homo sapiens, UniProt O15399); assay: Potentiation of [3H]MK-801 binding, wild-type NMDAR2D; design: species or system rat
Description: as §1, §2

NR2C = NR2C (Homo sapiens, UniProt Q14957); assay: Potentiation of [3H]MK-801 binding, wild-type NMDAR2C; design: species or system rat
Description: as §1, §2

rat = assay: Positive emotional learning (PEL) test, 50-kHz USVs; type: in vivo; settings: administered one hour prior to PEL testing
Description: Experiments were conducted as described in Burgdorf et al., “The effect of selective breeding for differential rates of 50-kHz ultrasonic vocalizations on emotional behavior in rats,” Devel. Psychobiol., 51:34-46 (2009).
The PEL assay measures the acquisition of positive (hedonic) 50-kHz ultrasonic vocalizations (USVs) to a social stimulus, heterospecific rough and tumble play stimulation. Heterospecific rough-and-tumble play stimulation was administered by the experimenter's right hand. Animals received 3 min of heterospecific rough-and-tumble play that consisted of alternating 15 sec blocks of heterospecific play and 15 sec of no-stimulation. High frequency ultrasonic vocalizations (USVs) were recorded and analyzed by sonogram with Avasoft SASlab Pro (Germany) as previously described by Burgdorf et al., “Positive emotional learning is regulated in the medial prefrontal cortex by GluN2B-containing NMDA receptors,” Neuroscience, 192:515-523 (2011). Frequency modulated 50-kHz USVs that occurred during each of the no-stimulation periods were quantified to measure PEL. Animals were not habituated to play stimulation before testing. Positive emotional learning was measured during the conditioned stimulus (CS) trials preceding the tickle unconditioned stimulus (UCS) trials. […] Running speed for animals to self administer tickling at the end of the 3 min session was also measured.

[2] = potentiation of [3H]MK-801 binding

Sequence of NR2D (O15399 28-1336, species assumed, other chains not shown): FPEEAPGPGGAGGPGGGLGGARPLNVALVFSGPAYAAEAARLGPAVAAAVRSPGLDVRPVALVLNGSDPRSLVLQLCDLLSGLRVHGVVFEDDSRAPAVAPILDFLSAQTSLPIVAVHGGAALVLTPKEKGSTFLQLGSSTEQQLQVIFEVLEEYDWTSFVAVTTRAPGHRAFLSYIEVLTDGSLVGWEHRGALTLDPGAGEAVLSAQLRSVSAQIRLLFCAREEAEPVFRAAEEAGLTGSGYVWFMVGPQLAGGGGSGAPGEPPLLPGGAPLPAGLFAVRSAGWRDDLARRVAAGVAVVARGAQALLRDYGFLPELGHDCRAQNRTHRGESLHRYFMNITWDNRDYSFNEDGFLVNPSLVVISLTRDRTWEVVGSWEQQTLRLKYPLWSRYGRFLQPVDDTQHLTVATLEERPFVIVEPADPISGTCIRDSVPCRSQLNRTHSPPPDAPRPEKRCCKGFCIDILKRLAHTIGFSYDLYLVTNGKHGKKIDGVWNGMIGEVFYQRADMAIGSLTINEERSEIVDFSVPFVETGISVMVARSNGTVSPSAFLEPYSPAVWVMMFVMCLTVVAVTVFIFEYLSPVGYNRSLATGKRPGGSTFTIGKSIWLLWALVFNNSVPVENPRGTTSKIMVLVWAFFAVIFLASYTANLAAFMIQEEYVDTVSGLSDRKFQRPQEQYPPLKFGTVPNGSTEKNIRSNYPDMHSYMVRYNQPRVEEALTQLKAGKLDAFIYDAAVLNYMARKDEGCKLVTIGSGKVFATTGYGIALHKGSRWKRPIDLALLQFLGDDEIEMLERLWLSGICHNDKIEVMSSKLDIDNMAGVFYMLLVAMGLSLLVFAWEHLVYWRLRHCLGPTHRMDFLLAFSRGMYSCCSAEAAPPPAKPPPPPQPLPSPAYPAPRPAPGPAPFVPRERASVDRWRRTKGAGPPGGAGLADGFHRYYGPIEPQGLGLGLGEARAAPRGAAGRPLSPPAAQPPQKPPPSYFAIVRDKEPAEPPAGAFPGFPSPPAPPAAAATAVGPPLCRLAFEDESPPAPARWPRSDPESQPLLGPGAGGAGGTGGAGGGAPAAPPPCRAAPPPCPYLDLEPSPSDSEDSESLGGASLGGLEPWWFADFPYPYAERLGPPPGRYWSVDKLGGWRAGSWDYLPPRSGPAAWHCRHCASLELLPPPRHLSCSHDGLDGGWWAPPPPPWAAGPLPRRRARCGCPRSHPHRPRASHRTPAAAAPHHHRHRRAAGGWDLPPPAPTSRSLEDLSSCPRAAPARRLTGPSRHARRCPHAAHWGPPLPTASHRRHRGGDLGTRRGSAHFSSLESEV
Sequence of NR2C (Q14957 20-1233, species assumed, other chains not shown): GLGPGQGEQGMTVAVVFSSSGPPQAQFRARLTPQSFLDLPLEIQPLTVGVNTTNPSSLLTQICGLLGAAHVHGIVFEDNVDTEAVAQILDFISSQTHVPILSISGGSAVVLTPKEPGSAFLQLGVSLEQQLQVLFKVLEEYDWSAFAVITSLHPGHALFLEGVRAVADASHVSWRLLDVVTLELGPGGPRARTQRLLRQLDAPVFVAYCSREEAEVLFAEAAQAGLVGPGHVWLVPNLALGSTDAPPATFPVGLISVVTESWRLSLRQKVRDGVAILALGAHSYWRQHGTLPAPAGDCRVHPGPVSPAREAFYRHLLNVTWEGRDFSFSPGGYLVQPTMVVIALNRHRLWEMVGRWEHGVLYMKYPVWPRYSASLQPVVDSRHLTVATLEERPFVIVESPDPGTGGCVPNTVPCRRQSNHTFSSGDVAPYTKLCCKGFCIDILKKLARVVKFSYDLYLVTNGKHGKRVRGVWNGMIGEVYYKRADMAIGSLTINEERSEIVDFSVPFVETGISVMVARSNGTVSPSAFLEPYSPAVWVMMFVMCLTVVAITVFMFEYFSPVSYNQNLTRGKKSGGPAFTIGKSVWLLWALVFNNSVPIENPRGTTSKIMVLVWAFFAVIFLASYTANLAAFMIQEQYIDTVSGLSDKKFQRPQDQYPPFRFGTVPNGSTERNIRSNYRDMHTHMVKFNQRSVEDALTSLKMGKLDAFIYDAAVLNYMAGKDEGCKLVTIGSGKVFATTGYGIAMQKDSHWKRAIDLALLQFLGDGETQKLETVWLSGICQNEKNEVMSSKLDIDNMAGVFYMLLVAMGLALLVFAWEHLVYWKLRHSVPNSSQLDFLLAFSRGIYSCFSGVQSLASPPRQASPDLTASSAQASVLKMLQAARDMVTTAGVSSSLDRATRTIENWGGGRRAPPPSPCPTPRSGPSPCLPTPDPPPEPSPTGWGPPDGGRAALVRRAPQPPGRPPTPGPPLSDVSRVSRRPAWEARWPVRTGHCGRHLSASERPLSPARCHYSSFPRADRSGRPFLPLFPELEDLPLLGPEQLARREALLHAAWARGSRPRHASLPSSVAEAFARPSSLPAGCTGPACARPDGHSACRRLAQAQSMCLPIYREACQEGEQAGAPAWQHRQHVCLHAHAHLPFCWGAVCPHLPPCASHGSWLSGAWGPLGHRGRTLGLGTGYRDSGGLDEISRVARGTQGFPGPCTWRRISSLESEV
Sequence of NR2B (Q13224 27-1484, species assumed, other chains not shown): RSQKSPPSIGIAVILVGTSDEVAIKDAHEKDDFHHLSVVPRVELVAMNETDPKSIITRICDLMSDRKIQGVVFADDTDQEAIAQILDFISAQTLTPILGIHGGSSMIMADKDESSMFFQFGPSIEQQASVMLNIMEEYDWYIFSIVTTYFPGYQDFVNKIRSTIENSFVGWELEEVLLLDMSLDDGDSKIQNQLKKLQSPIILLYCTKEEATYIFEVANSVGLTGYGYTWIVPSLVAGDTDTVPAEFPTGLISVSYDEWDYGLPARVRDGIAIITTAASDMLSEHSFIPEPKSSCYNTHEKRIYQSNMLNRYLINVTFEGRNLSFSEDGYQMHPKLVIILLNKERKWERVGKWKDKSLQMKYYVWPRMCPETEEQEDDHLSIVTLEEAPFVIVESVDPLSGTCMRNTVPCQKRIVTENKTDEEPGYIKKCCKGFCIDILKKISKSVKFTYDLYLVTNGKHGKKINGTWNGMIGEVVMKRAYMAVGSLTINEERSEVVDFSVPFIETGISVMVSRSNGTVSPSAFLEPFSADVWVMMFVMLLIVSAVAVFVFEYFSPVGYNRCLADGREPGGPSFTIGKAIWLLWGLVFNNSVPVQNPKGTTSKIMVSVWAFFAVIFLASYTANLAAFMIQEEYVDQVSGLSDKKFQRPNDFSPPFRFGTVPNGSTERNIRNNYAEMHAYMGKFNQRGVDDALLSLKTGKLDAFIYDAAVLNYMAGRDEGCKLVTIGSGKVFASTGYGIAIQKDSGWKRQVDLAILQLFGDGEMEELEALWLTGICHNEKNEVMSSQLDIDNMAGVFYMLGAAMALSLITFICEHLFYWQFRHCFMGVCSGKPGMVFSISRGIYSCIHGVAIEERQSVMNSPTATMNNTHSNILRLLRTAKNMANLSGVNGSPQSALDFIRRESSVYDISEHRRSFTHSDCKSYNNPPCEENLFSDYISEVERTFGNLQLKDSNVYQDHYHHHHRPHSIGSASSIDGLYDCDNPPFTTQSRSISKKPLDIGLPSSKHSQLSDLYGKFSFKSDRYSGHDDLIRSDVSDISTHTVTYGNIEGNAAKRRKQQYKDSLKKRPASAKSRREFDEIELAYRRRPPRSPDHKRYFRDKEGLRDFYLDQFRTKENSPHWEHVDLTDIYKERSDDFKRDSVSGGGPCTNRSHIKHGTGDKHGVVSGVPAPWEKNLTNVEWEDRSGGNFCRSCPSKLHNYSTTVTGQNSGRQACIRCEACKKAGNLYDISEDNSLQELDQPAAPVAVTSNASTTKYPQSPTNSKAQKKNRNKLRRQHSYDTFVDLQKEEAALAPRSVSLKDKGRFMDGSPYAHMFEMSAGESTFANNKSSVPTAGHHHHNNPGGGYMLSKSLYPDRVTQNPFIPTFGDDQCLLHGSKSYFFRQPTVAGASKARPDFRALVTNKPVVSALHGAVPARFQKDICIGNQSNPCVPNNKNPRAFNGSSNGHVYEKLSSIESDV

## C[C@@H](O)[C@@H](C(N)=O)N1C[C@@]2(CCCN2S(C)(=O)=O)C1=O [Compound BB, (2S,3R)-3-hydroxy-2-((S)-5-(methylsulfonyl)-1-oxo-2,5-diazaspiro[3,4]octan-2-yl)butanamide]
[1]; CSF, read-out: CSF/plasma ratio
  Kp: 0.48
[1]; brain, read-out: Brain/plasma ratio
  Kp: 0.12
[1]; plasma, PO administration (10 mg/kg PO, 2 mg/kg IV), male Sprague Dawley rats, read-out: Bioavailablity (% F)
  bioavailability: 82%
Sprague Dawley rats
  analgesic effects (paw withdrawal threshold): analgesic effects
Plasma stability, human
  Plasma Stability (% remaining at 60 min) Human: 81%
NR2B; [2]
  NR2B A (%) (activity): 76.3%
NR2B; relative to 1 mM glycine
  NMDAR2B BINDING PROFILE % 1 mM Glycine: 76.3%
NR2B; statement in description
  binding to NR2B (in words): binds
NR2B; wild-type NMDAR2B
  NMDAR2B BINDING PROFILE Conclusion: WT2B agonist
NR2D; [2]
  NR2D A (%) (activity): 57.41%
NR2D; potentiation of [3H]MK-801 binding, 0 = no activity, read-out: NR2D P (M) (potency) (converted)
  EC50: 5.62e-11 M
NR2D; relative to 1 mM glycine
  NMDAR2D BINDING PROFILE % 1 mM Glycine: 57.41%
NR2D; statement in description
  binding to NR2D (in words): binds
NR2D; wild-type NMDAR2D
  NMDAR2D BINDING PROFILE Conclusion: WT2D agonist
NR2D; wild-type NMDAR2D, read-out: NMDAR2D BINDING PROFILE −logEC50 (converted)
  EC50: 5.62e-11 M
NR2C; [2]
  NR2C A (%) (activity): 0%
NR2C; relative to 1 mM glycine
  NMDAR2C BINDING PROFILE % 1 mM Glycine: 0%
NR2C; statement in description
  binding to NR2C (in words): substantially no binding
NR2C; wild-type NMDAR2C
  NMDAR2C BINDING PROFILE Conclusion: WT2C no
rat
  positive emotional learning as measured by rat USVs: increases positive emotional learning
